Laboratory results reported in US11261230B2, “Synthetic somatostatin receptor ligands” (TEL HASHOMER MEDICAL RESEARCH INFRASTRUCTURE AND SERVICES …, priority 2014, dated 2022).
*1 amine or outer side, *2 acyl side, *3 side chain or, on linkers, in order; H or OH if unused. Where a SMILES comes first, the peptide text is derived from it. Bridges are numbered along the chain shown (N, C = ends). [ ]: non-standard residue; d: D form. The star is where a group is joined. FITC = O=C1OC2(c3ccc(O)cc3Oc3cc(O)ccc32)c2ccc(NC(=S)*)cc21; N(2-mercaptoethyl)Gly = O=C(CN(CCS[*:3])[*:1])[*:2]; Aib = CC(C)(N)C(=O)O; GABA = NCCCC(=O)O

Legend:
[1] = test system: PANC-1 tumors; conditions: mouse, in vivo
Procedure: Five different pharmaceutical compositions were prepared, each by dissolving 1 mg of a different Somatostatin receptor ligand in 1 liter PBS.
Solid human-derived tumors were induced in 15 nude mice by subcutaneous injection of a suspension containing ˜5□10^5 human cancer cells (PANC-1) into the flank area of the mice.
2-3 weeks after the injection of the cancer cells, it was observed that the mice developed solid tumors with diameters of approximately 5-10 mm.
0.3 ml of each one of the five pharmaceutical compositions were systemically administered to three of the fifteen xenograft mice by injection into the tail vein using a 30 G needle.
The fifteen mice were sacrificed and from the bodies tumors, pancreas, spleen, kidney and liver were harvested.
The fluorescence of the harvested tissue was determined using the Maestro™ in vivo fluorescence imaging system (Cambridge Research & Instrumentation, Inc., Woburn, Mass., USA).

[2] = molecular target: T1, human SSTR5 (Homo sapiens, UniProt P35346); test: Binding to transfected HEK cells expressing a single SSTRx subtype, FACS and fluorescence microscopy
T1 construct: expressed in transfected cells; host or cells: HEK-293, transient transfection, pcDNA 3.1
Procedure: (§1) The affinity of compounds 1-16 to each of the five SSTRx was tested using an in vitro model of transfected cell lines (HEK—human embryonic kidney), each expressing a single human SSTRx subtype. Biological activity assessment of the compounds to define a specific affinity to each subtype was performed by FACS and fluorescence imaging methods.
(§2) Human SSTRx were expressed in the cells by transient transfection. Each SSTR was expressed separately, creating five different cell lines using human gene transcript.
(§3) The transfection process is illustrated in FIG. 1. The transient transfection process was carried out before each experiment. Briefly, HEK cells were cultured in standard cell growth conditions. For testing, the cells were transferred into 96-well plates. The tested compounds were dissolved in DMSO and then diluted in a buffer solution to a final DMSO concentration of 5% as a composition according to the teachings herein. Various amounts of the thus-prepared compositions were added to the cells in medium in the 96-well plates and allowed to incubate for between 1 and 24 hours. Binding was determined using fluorescent microscopy and FACS.
(§4) Qualitative assessment of binding efficiency was done by visual inspection and digital photography using an inverted fluorescent microscope. Quantitative assessment was done using FACS.
(§5) HEK-293 cells (human embryonic kidney) were grown in Dulbecco's modified Eagle's medium (DMEM) supplemented with 4 mM glutamine, 10% fetal bovine serum (FBS) and 100 units/ml penicillin/streptomycin at 37° C./5% carbon dioxide. One day prior to transfection, the cells were trypsinized, counted and plated at a density of 3×10^5 per 35 mm diameter dish. Until 70% confluency, cells were transiently transfected with the pcDNA 3.1 vector bearing the coding region for the human SSTR human somatostatin receptor subtypes SSTR1-SSTR5. Transfections were carried out with JetPei transfection reagent (Polyplus-transfection, NY, USA) according to the manufacturer's recommendation. Briefly, 2 micrograms of plasmid DNA and 6 microliter of JetPei transfection reagent were used for each transfection. Each of the components were resuspended in 100 microliter of 150 mM NaCl, mixed and incubated for 25 minutes at room temperature and after incubation added to cells.
(§6) Cells were then seeded in a 96-well flat-bottom microplate (Costar, Corning, N.Y.) at a concentration of 5×10^4 cells/well. Twelve hours later, the supernatant was removed and replaced with fresh DMEM containing various (in the nM range) concentrations of tested compounds 1-16. The cells were incubated for additional time intervals ranging from 0.5-24 hr. At the end of the incubation period, supernatant was discarded and the cells were washed twice with cold PBS. The plates were examined using IX81 inverted microscope (Olympus, Japan) equipped with […] digital camera. Additionally, a FACS assay was used for quantitative analysis.
(§7) Quantitative assessment of binding affinity of Compounds 1-16 was performed by FACS in the transfected HEK cell model.
(§8) Quantitatively, specific binding affinity was assessed as the percentage of double stained [(GR=green and red indicating transfection)/(R is total red) less (G is green indicating unspecific binding)]: specific binding affinity=[GR/R−G]

[3] = molecular target: T2, human SSTR3 (Homo sapiens, UniProt P32745); test: Binding to transfected HEK cells expressing a single SSTRx subtype, FACS
T2 construct: expressed in transfected cells; host or cells: HEK-293, transient transfection, pcDNA 3.1
Procedure: as §1, §2, §3, §4, §5, §6, §7, §8

[4] = molecular target: T3, human SSTR2 (Homo sapiens, UniProt P30874); test: as above
T3 construct: expressed in transfected cells; host or cells: HEK-293, transient transfection, pcDNA 3.1
Procedure: as §1, §2, §3, §4, §5, §6, §7, §8

[5] = molecular target: T4, human SSTR1 (Homo sapiens, UniProt P30872); test: as above
T4 construct: expressed in transfected cells; host or cells: HEK-293, transient transfection, pcDNA 3.1
Procedure: as §1, §2, §3, §4, §5, §6, §7, §8

[6] = molecular target: T5, human SSTR4 (Homo sapiens, UniProt P31391); test: as above
T5 construct: expressed in transfected cells; host or cells: HEK-293, transient transfection, pcDNA 3.1
Procedure: as §1, §2, §3, §4, §5, §6, §7, §8

[7] = test system: SSTR1-SSTR5; test: Binding specificity across the five SSTRx transfected HEK cell lines; set-up: species or system human; conditions: conclusions drawn from Table 2-A
Procedure: Biological activity assessment of the compounds to define a specific affinity to each subtype was performed by FACS and fluorescence imaging methods. Human SSTRx were expressed in the cells by transient transfection. Each SSTR was expressed separately, creating five different cell lines using human gene transcript. The transfection process is illustrated in FIG. 1. The transient transfection process was carried out before each experiment. Briefly, HEK cells were cultured in standard cell growth conditions. For testing, the cells were transferred into 96-well plates. The tested compounds were dissolved in DMSO and then diluted in a buffer solution to a final DMSO concentration of 5% as a composition according to the teachings herein. Various amounts of the thus-prepared compositions were added to the cells in medium in the 96-well plates and allowed to incubate for between 1 and 24 hours. Binding was determined using fluorescent microscopy and FACS. Cells were then seeded in a 96-well flat-bottom microplate (Costar, Corning, N.Y.) at a concentration of 5×10^4 cells/well. […] Additionally, a FACS assay was used for quantitative analysis. […] Quantitatively, specific binding affinity was assessed as the percentage of double stained [(GR=green and red indicating transfection)/(R is total red) less (G is green indicating unspecific binding)]: specific binding affinity=[GR/R−G]

[8] = FACS, transfected HEK, specific binding affinity = percentage double stained [GR/R−G], 0 = no binding detected
[9] = Table 2 normalized according to the highest binding affinity of that compound
[10] = Table 2 normalized to Compound 1 (=100)

T1 sequence (P35346 whole entry): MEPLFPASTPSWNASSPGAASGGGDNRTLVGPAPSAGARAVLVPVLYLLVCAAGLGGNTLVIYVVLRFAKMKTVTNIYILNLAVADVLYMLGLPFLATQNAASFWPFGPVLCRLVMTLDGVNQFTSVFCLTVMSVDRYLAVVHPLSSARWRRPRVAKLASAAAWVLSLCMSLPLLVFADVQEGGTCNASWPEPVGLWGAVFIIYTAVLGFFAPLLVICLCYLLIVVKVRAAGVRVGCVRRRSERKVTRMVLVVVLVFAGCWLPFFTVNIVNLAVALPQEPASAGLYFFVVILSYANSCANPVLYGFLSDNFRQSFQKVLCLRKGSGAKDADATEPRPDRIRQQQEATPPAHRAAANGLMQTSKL
T3 sequence (P30874 whole entry): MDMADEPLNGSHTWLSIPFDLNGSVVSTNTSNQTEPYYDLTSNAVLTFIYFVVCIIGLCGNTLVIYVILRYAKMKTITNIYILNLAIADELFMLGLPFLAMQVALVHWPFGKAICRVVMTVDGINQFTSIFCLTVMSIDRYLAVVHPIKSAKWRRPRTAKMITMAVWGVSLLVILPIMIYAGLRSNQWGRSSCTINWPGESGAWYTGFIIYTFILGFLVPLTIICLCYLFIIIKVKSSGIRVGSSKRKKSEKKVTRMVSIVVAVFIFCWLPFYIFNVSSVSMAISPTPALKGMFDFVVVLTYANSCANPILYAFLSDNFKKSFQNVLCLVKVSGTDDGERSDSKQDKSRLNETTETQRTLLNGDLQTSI
T5 sequence (P31391 whole entry): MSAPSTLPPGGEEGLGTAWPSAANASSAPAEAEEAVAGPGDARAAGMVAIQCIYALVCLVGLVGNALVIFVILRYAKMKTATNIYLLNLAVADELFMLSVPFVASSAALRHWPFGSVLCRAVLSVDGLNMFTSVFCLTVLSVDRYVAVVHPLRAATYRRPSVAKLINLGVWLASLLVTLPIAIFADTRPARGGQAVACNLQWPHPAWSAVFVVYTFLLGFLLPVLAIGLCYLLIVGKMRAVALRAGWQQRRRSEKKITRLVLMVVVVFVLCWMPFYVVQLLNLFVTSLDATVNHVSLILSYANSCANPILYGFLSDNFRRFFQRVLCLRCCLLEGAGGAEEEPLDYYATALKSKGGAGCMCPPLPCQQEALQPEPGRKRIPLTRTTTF
T2 sequence (P32745 whole entry): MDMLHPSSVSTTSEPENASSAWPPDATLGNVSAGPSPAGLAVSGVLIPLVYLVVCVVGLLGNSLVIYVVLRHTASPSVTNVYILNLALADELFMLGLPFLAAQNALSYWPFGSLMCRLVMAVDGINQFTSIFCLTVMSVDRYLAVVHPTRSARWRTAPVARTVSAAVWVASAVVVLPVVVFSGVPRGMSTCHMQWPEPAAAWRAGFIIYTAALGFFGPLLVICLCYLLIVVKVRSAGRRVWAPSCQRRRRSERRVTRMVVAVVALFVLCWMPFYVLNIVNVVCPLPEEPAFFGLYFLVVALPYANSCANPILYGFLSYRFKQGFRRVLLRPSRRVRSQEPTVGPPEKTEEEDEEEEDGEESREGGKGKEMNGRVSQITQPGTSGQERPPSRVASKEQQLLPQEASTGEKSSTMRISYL
T4 sequence (P30872 whole entry): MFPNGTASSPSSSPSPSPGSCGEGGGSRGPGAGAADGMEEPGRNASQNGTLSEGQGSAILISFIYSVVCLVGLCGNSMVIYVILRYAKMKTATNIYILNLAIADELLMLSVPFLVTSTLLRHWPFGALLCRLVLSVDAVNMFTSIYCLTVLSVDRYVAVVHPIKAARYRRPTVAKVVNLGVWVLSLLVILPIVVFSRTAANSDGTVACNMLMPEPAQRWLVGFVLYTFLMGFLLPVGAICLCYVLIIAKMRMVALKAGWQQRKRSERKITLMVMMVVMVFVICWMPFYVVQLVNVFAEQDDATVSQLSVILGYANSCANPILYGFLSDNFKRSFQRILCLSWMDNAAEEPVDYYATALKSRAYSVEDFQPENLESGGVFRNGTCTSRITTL

SMILES | Intensity in healthy tissue (in words) [1] | Relative binding affinity SSTR5 [2, 8] | Adjusted binding affinity SSTR5 [2, 9] | Binding affinity to SSTR5 relative to Compound 1 [2, 10] | Relative binding affinity SSTR3 [3, 8] | Adjusted binding affinity SSTR3 [3, 9] | Binding affinity to SSTR3 relative to Compound 1 [3, 10] | Relative binding affinity SSTR2 [4, 8] | Adjusted binding affinity SSTR2 [4, 9] | Binding affinity to SSTR2 relative to Compound 1 [4, 10] | Relative binding affinity SSTR1 [5, 8] | Adjusted binding affinity SSTR1 [5, 9] | Binding affinity to SSTR1 relative to Compound 1 [5, 10] | Relative binding affinity SSTR4 [6, 8] | Adjusted binding affinity SSTR4 [6, 9] | Binding affinity to SSTR4 relative to Compound 1 [6, 10] | Binding specificity among the five SSTRx (in words) [7]
C[C@@H](O)[C@@H]1NC(=O)[C@H](CCCCN)NC(=O)[C@@H](Cc2c[nH]c3ccccc23)NC(=O)[C@H](Cc2ccccc2)NC(=O)[C@H](CCCNC(=N)N)NC(=O)[C@@H](NC(=O)CCCNC(=S)Nc2ccc3c(c2)C(=O)OC32c3ccc(O)cc3Oc3cc(O)ccc32)CSSCCN(CC(N)=O)C(=O)[C@H](Cc2ccccc2)NC1=O [Compound 9, FITC-GABA-Cys-Arg-Phe-D-Trp-Lys-Thr-Phe-GlyS2] ({FITC-GABA}-CRF[dW]KTF[N(2-mercaptoethyl)Gly]-NH2; disulfide 1-8) | undetectable in the healthy tissues | – | – | – | – | – | – | – | – | – | – | – | – | – | – | – | –
C[C@@H](O)[C@@H]1NC(=O)C(C)(C)NC(=O)[C@@H](Cc2c[nH]c3ccccc23)NC(=O)[C@H](Cc2c[nH]c3ccccc23)NC(=O)[C@H](Cc2ccccc2)NC(=O)[C@@H](NC(=O)[C@@H](Cc2ccccc2)NC(=O)CCCNC(=S)Nc2ccc3c(c2)C(=O)OC32c3ccc(O)cc3Oc3cc(O)ccc32)CSSCCN(CC(N)=O)C(=O)[C@H](Cc2ccccc2)NC1=O [Compound 13, FITC-GABA-D-Phe-Cys-Phe-Trp-D-Trp-Aib-Thr-Phe-GlyS2] ({FITC-GABA}-[dF]CFW[dW][Aib]TF[N(2-mercaptoethyl)Gly]-NH2; disulfide 2-9) | – | 9 | 1 | 32 | 6 | 0.67 | 35 | 0 | 0 | 0 | 1 | 0.11 | 33 | 4 | 0.44 | 18 | to SSTR3 and SSTR5 and not SSTR1, SSTR2 and SSTR4
